In ChEMBL document CHEMBL1132054, “Synthesis and properties of 2-(naphthosultamyl)methyl-carbapenems with potent anti-MRSA activity: discovery of L-786,392” (Bioorg Med Chem Lett, 1999):
In brackets after ≈: the same amount, converted by molar mass.

How the values were obtained:
[1] = target: T1, Dipeptidase 1 (Sus scrofa) (UniProt P22412); experiment: Susceptibility to hog kidney dehydropeptidase-I.; format: functional, tissue-based; parameters: reference not given here
T1 sequence (whole entry): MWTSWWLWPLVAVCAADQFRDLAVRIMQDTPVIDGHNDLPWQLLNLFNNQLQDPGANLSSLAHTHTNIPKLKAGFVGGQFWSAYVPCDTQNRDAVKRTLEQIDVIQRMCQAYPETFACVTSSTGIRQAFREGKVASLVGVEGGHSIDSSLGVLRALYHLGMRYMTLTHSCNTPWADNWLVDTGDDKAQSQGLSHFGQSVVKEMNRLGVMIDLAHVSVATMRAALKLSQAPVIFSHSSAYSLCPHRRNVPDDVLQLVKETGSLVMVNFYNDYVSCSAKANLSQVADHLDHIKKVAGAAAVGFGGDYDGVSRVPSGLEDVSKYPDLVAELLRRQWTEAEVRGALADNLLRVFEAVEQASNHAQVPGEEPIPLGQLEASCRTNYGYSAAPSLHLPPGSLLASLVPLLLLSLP

Enterococcus faecium [2] = experiment: In vitro antibacterial activity against MDREFm.; format: functional
Enterococcus faecalis = experiment: In vitro antibacterial activity against VREFs.; format: functional
Staphylococcus sp. = experiment: In vitro antibacterial activity against MRCNS.; format: functional
Streptococcus pneumoniae = experiment: In vitro antibacterial activity against PRSP.; format: functional
Staphylococcus aureus [3] = experiment: Effect of 43 mg/mL of Human Serum Albumin, Fraction V (HSA Fr. V) on antimicrobial activity was assessed against MSSA strain MB 2985; format: functional
Staphylococcus aureus [4] = experiment: Antibacterial activity against Methicillin sensitive Staphylococcus aureus-/+ HSA Fr. V; format: functional
Staphylococcus aureus [5] = experiment: In vitro antibacterial activity against MRSA.; format: functional
Mus musculus = organism: Mus musculus; experiment: Dose showing no visible effects (ataxia, somnolence) in two mice; format: functional
[6] = Lethal dose defined as as the lowest dose resulting in the death of a single mouse; format: toxicity; conditions: in vivo
Staphylococcus aureus [7] = experiment: Antibacterial activity against Methicillin sensitive Staphylococcus aureus; format: functional
Enterococcus faecium [8] = experiment: Antibacterial activity against VREFs; format: functional
Staphylococcus aureus [9] = experiment: Effect of 43 mg/mL of Human Serum Albumin, Fraction V (HSA Fr. V) on antimicrobial activity was assessed against Methicillin sensitive Staphylococcus aureus strain MB 2985; format: functional
Enterococcus faecium [10] = experiment: Antibacterial activity against MDREFm; format: functional
[11] = target: T1, Dipeptidase 1 (Sus scrofa); experiment: Compound was tested for susceptibility to hog kidney dehydropeptidase-I and expressed as a reaction rate normalized to the rate observed with imipenem (IPM); format: functional, tissue-based

Row | MIC (Staphylococcus aureus [3]) [µg/mL] | MIC (Staphylococcus aureus [7]) [µg/mL] | SMILES | Activity [1] | MIC (Enterococcus faecium [2]) [µg/mL] | MIC (Enterococcus faecalis) [µg/mL] | MIC (Staphylococcus sp.) [µg/mL] | MIC (Streptococcus pneumoniae) [µg/mL] | MIC (Staphylococcus aureus [4]) [µg/mL] | MIC (Staphylococcus aureus [5]) [µg/mL] | NOEL (Mus musculus) [mg/kg] | Lethal dose [6] [mg/kg] | MIC (Enterococcus faecium [8]) [µg/mL] | MIC (Staphylococcus aureus [9]) [µg/mL] | MIC (Enterococcus faecium [10]) [µg/mL] | Activity [11]
1 | 0.031 | – | C[C@@H](O)[C@H]1C(=O)N2C(C(=O)O)=C(CN3c4cccc5cc(C[N+]67CC[N+](CC(N)=O)(CC6)CC7)cc(c45)S3(=O)=O)[C@H](C)[C@H]12.[Cl-].[Cl-] | 0.21 | 8 | 16 | 3 | 0.5 | 0.016 | 2 | – | – | – | – | – | –
2 | 0.062 | – | C[C@@H](O)[C@H]1C(=O)N2C(C(=O)O)=C(CN3c4ccc(CC[N+]56CC[N+](CC(N)=O)(CC5)CC6)c5cccc(c45)S3(=O)=O)[C@H](C)[C@H]12.[Cl-].[Cl-] | 0.74 | 16 | 32 | 12.1 | 1 | 0.062 | 8 | – | – | – | – | – | –
3 | – | – | C[C@@H](O)[C@H]1C(=O)N2C(C(=O)O)=C(CN3c4cccc5cc(CC[N+]67CC[N+](CC(=O)Nc8ccccc8)(CC6)CC7)cc(c45)S3(=O)=O)[C@H](C)[C@H]12.[Cl-].[Cl-] | 0.64 | 3.2 | 8 | 0.3 | 0.17 | – | 0.2 | <61 | 245 | – | – | – | –
4 | 0.031 | – | C[C@@H](O)[C@H]1C(=O)N2C(C(=O)O)=C(CN3c4cccc5cc(CCC[N+]67CC[N+](CC(N)=O)(CC6)CC7)cc(c45)S3(=O)=O)[C@H](C)[C@H]12.[Cl-].[Cl-] | 1.25 | 6.4 | 16 | 4 | 0.5 | 0.016 | 2.2 | – | – | – | – | – | –
5 | – | – | CN[C@H](CC(C)C)C(=O)N[C@H]1C(=O)N[C@@H](CC(N)=O)C(=O)N[C@H]2C(=O)N[C@H]3C(=O)N[C@H](C(=O)N[C@H](C(=O)O)c4cc(O)cc(O)c4-c4cc3ccc4O)[C@H](O)c3ccc(c(Cl)c3)Oc3cc2cc(c3O[C@@H]2O[C@H](CO)[C@@H](O)[C@H](O)[C@H]2O[C@H]2C[C@](C)(N)[C@H](O)[C@H](C)O2)Oc2ccc(cc2Cl)[C@H]1O [VANCOMYCIN] | – | 20.2 (≈ 13.9 µM) | > 64 | 1.7 (≈ 1.17 µM) | 0.35 (≈ 0.242 µM) | – | 0.9 (≈ 0.621 µM) | – | – | – | – | – | –
6 | 0.25 | 0.016 | C[C@@H](O)[C@H]1C(=O)N2C(C(=O)[O-])=C(CN3c4cccc5cccc(c45)S3(=O)=O)[C@H](C)[C@H]12.[Na+] | 0.99 | 25.4 | 8 | 3.5 | 0.25 | – | 0.7 | – | – | – | – | – | –
7 | – | – | CCC[N+]12CC[N+](CCc3ccc4c5c(cccc35)N(CC3=C(C(=O)O)N5C(=O)[C@H]([C@@H](C)O)[C@H]5[C@H]3C)S4(=O)=O)(CC1)CC2.[Cl-].[Cl-] | 1.93 | 6.4 | 16 | 4 | 0.25 | – | 2.2 | – | – | – | – | – | –
8 | – | – | C[C@@H](O)[C@H]1C(=O)N2C(C(=O)O)=C(CN3c4cccc5c(CC[N+]67CC[N+](CC(N)=O)(CC6)CC7)ccc(c45)S3(=O)=O)[C@H](C)[C@H]12.[Cl-].[Cl-] | 1.77 | – | – | 1 | 0.17 | 0.016 | 0.7 | 250 | > 500 | 8 | 0.031 | 4 | –
9 | – | – | CCC[N+]12CC[N+](CCc3cc4c5c(cccc5c3)N(CC3=C(C(=O)O)N5C(=O)[C@H]([C@@H](C)O)[C@H]5[C@H]3C)S4(=O)=O)(CC1)CC2.[Cl-].[Cl-] | – | 3.2 | 8 | 1.5 | 0.24 | – | 1 | – | – | – | – | – | –
10 | – | – | C[C@@H](O)[C@H]1C(=O)N2C(C(=O)O)=C(CN3c4cccc5c(CC[N+]67CC[N+](CCCO)(CC6)CC7)ccc(c45)S3(=O)=O)[C@H](C)[C@H]12.[Cl-].[Cl-] | 1.9 | 6.4 | 16 | 0.9 | 0.5 | – | 0.6 | 250 | > 500 | – | – | – | –
11 | – | – | C[C@@H](O)[C@H]1C(=O)N2C(C(=O)O)=C(CN3c4cccc5c(CC[N+]67CC[N+](CC(=O)Nc8ccccc8)(CC6)CC7)ccc(c45)S3(=O)=O)[C@H](C)[C@H]12.[Cl-].[Cl-] | 1.4 | 4 | 4 | 1.5 | 0.12 | – | 0.8 | 31 | 63 | – | – | – | –
12 | 0.125 | – | C[C@@H](O)[C@H]1C(=O)N2C(C(=O)O)=C(CN3c4ccc(C[N+]56CC[N+](CC(N)=O)(CC5)CC6)c5cccc(c45)S3(=O)=O)[C@H](C)[C@H]12.[Cl-].[Cl-] | 0.81 | 32 | 32 | 12.1 | 1 | 0.031 | 4.2 | – | – | – | – | – | –
13 | – | – | C[C@@H](O)[C@H]1C(=O)N2C(C(=O)O)=C(CN3c4cccc5cc(CC[N+]67CC[N+](CCCO)(CC6)CC7)cc(c45)S3(=O)=O)[C@H](C)[C@H]12.[Cl-].[Cl-] | 0.85 | 4 | 8 | 1.5 | 0.17 | – | 1.1 | – | – | – | – | – | –
14 | 0.031 | 0.016 | C[C@@H](O)[C@H]1C(=O)N2C(C(=O)O)=C(CN3c4cccc5ccc(C[N+]67CC[N+](CC(N)=O)(CC6)CC7)c(c45)S3(=O)=O)[C@H](C)[C@H]12.[Cl-].[Cl-] | 0.01 | 20.2 | 16 | 4 | 0.71 | – | 2.5 | – | – | – | – | – | –
15 | – | – | C[C@@H](O)[C@H]1C(=O)N2C(C(=O)O)=C(CN3c4cccc5c(CC[N+]67CC[N+](Cc8ccccc8)(CC6)CC7)ccc(c45)S3(=O)=O)[C@H](C)[C@H]12.[Cl-].[Cl-] | – | 6.4 | 8 | 1.3 | 0.35 | – | 0.9 | 63 | 250 | – | – | – | 1.85
16 | 64 | – | C[C@@H](O)[C@H]1C(=O)N2C(C(=O)O)=C(CN3c4c(CC[N+]56CC[N+](CC(N)=O)(CC5)CC6)ccc5cccc(c45)S3(=O)=O)[C@H](C)[C@H]12.[Cl-].[Cl-] | – | > 64 | > 64 | > 64 | > 64 | 32 | > 64 | – | – | – | – | – | –

Row | SMILES | MIC (Staphylococcus aureus [3]) [µg/mL] | MIC (Staphylococcus aureus [7]) [µg/mL] | Activity [1] | MIC (Enterococcus faecium [2]) [µg/mL] | MIC (Enterococcus faecalis) [µg/mL] | MIC (Staphylococcus sp.) [µg/mL] | MIC (Streptococcus pneumoniae) [µg/mL] | MIC (Staphylococcus aureus [4]) [µg/mL] | MIC (Staphylococcus aureus [5]) [µg/mL] | NOEL (Mus musculus) [mg/kg] | Lethal dose [6] [mg/kg] | MIC (Enterococcus faecium [8]) [µg/mL] | MIC (Staphylococcus aureus [9]) [µg/mL] | MIC (Enterococcus faecium [10]) [µg/mL] | Activity [11]
17 | C[C@@H](O)[C@H]1C(=O)N2C(C(=O)O)=C(CN3c4cccc5ccc(CC[N+]67CC[N+](CC(N)=O)(CC6)CC7)c(c45)S3(=O)=O)[C@H](C)[C@H]12.[Cl-].[Cl-] | 0.016 | 0.016 | 0 | 10.1 | 8 | 1.2 | 0.35 | – | 0.9 | 16 | 63 | – | – | – | –
18 | C[C@@H](O)[C@H]1C(=O)N2C(C(=O)O)=C(CN3c4cccc5c(C[N+]67CC[N+](CC(N)=O)(CC6)CC7)ccc(c45)S3(=O)=O)[C@H](C)[C@H]12.[Cl-].[Cl-] | 0.031 | – | 0.74 | 8 | 16 | 1.5 | 0.5 | 0.031 | 1 | 250 | 500 | – | – | – | –
19 | C[C@@H](O)[C@H]1C(=O)N2C(C(=O)O)=C(CN3c4cccc5c(CCC[N+]67CC[N+](CC(N)=O)(CC6)CC7)ccc(c45)S3(=O)=O)[C@H](C)[C@H]12.[Cl-].[Cl-] | 0.031 | – | 2.64 | 4 | 8 | 3.5 | 0.25 | 0.016 | 2 | 125 | 500 | – | – | – | –
20 | C[C@@H](O)[C@H]1C(=O)N2C(C(=O)O)=C(SCCNC=N)C[C@H]12 [IMIPENEM ANHYDROUS] | 0.016 (≈ 0.0534 µM) | – | 1 | > 64 | 8 (≈ 26.7 µM) | > 64 | 0.25 (≈ 0.835 µM) | 0.016 (≈ 0.0534 µM) | > 40 | – | – | – | – | – | –
21 | C[C@@H](O)[C@H]1C(=O)N2C(C(=O)O)=C(CN3c4cccc5cc(CC[N+]67CC[N+](CC(N)=O)(CC6)CC7)cc(c45)S3(=O)=O)[C@H](C)[C@H]12.[Cl-].[Cl-] | 0.016 | – | 0.75 | 3.2 | 8 | 0.6 | 0.17 | 0.016 | 0.5 | 125 | 500 | – | – | – | –
